# Reference: US20210269451A1, “PYRIDINYL HETEROCYCLYL COMPOUNDS FOR THE TREATMENT OF AUTOIMMUNE DISEASE” (Hoffmann-La Roche Inc., priority 2018, published 2021)
# How the values were obtained:
# [1] = Human microsome stability assay; assay type: in vitro ADME; conditions: 1 μM test compound, 0.5 mg/mL liver microsomal protein, 37° C.
# Description: Human microsome stability assay
# The human microsomal stability assay is used for early assessment of metabolic stability of a test compound in human liver microsomes.
# Human liver microsomes (Cat.NO.: 452117, Corning, USA;Cat.NO.:H2610, Xenotech, USA) were preincubated with test compound for 10 minutes at 37° C. in 100 mM potassium phosphate buffer, pH 7.4. The reactions were initiated by adding NADPH regenerating system. The final incubation mixtures contained 1 μM test compound, 0.5 mg/mL liver microsomal protein, 1 mM MgCl2, 1 mM NADP, 1 unit/mL isocitric dehydrogenase and 6 mM isocitric acid in 100 mM potassium phosphate buffer, pH 7.4. After incubation times of 0, 3, 6, 9, 15 and 30 minutes at 37° C., 300 μL of cold acetonitrile (including internal standard) was added to 100 μL incubation mixture to terminate the reaction. Following precipitation and centrifugation, the amount of compound remaining in the samples were determined by LC-MS/MS. Controls of no NADPH regenerating system at zero and 30 minutes were also prepared and analyzed.
# hERG channel = target: T1, hERG channel (Homo sapiens, UniProt Q12809); assay: hERG channel inhibition assay (patch-clamp, CHOhERG cells); assay type: cell-based; conditions: for IC50 / IC20: CHOhERG cells, whole-cell patch-clamp; for IC20: human, CHO cells stably expressing hERG (CHOhERG); for hERG IC20/TLR7 IC50 / hERG IC20/TLR8 IC50 / hERG IC20/TLR9 IC50: safety ratio;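 as to hERG IC20/TLR7 IC50: ratio above 30 indicates an adequate safety window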;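 as to hERG IC20/TLR8 IC50: ratio above 30 indicates an adequate safety window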
# T1 construct: expressed in transfected cells; host or cells: CHO (Chinese hamster ovary), CHOhERG
# T1 sequence (Q12809 whole entry): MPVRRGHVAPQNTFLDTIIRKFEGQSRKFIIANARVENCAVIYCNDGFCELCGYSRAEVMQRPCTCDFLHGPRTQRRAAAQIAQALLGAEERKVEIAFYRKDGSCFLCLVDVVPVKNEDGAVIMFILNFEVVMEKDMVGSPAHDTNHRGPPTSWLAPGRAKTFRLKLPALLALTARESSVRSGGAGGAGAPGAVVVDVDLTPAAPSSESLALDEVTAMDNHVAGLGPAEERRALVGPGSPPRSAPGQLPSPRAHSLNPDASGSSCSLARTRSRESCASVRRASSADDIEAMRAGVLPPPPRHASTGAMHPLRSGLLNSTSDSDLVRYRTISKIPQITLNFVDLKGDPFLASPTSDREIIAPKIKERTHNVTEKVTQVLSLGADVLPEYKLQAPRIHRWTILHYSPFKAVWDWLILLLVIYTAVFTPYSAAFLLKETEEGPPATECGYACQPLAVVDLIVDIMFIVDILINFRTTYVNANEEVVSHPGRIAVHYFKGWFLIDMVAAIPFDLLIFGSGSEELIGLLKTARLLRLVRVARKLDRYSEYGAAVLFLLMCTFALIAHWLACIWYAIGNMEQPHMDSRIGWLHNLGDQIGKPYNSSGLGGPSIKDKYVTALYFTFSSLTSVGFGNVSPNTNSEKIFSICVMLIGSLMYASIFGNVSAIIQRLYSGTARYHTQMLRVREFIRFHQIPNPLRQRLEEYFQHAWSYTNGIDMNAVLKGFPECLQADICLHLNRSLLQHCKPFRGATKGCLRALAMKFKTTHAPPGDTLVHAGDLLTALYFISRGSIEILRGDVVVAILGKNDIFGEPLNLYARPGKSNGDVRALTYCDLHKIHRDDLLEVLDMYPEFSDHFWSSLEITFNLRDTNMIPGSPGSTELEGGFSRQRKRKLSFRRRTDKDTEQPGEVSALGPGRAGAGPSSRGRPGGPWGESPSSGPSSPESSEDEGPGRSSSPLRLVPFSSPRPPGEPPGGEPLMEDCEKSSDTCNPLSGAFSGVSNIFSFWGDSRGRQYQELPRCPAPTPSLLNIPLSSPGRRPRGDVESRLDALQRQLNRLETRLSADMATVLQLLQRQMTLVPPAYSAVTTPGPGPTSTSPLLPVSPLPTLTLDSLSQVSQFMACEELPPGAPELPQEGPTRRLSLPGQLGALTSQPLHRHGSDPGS
# Description: hERG channel inhibition assay:
# The hERG K^+ channels were cloned in humans and stably expressed in a CHO (Chinese hamster ovary) cell line. CHOhERG cells were used for patch-clamp (voltage-clamp, whole-cell) experiments. Cells were stimulated by a voltage pattern to activate hERG channels and conduct IKhERG currents (rapid delayed outward rectifier potassium current of the hERG channel). After the cells were stabilized for a few minutes, the amplitude and kinetics of IKhERG were recorded at a stimulation frequency of 0.1 Hz (6 bpm). Thereafter, the test compound was added to the preparation at increasing concentrations. For each concentration, an attempt was made to reach a steady-state effect, usually, this was achieved within 3-10 min at which time the next highest concentration was applied. The amplitude and kinetics of IKhERG are recorded in each concentration of the drug which were compared to the control values (taken as 100%). (references: Redfern W S, Carlsson L, Davis A S, Lynch W G, MacKenzie I, Palethorpe S, Siegl P K, Strang I, Sullivan A T, Wallis R, Camm A J, Hammond T G. 2003; Relationships between preclinical cardiac electrophysiology, clinical QT interval prolongation and torsade de pointes for a broad range of drugs: evidence for a provisional safety margin in drug development. Cardiovasc. Res. 58:32-45, Sanguinetti M C, Tristani-Firouzi M. 2006; hERG potassium channels and cardiac arrhythmia. Nature 440:463-469, Webster R, Leishman D, Walker D. 2002; Towards a drug concentration effect relationship for QT prolongation and torsades de pointes. Curr. Opin. Drug Discov. Devel. 5:116-26).
Structure (SMILES),Clearance of Human microsome [1] [mL/min/kg],IC50 (hERG channel) [µM],IC20 (hERG channel) [µM],hERG IC20/TLR7 IC50 (hERG channel),hERG IC20/TLR8 IC50 (hERG channel),hERG IC20/TLR9 IC50 (hERG channel)
"C[C@@H]1CN(c2ccc(C#N)c3ncccc23)C[C@H](CN2CCN(c3cc(N)nc(CO)c3)CC2)O1 [Example 45, 5-[(2S,6R)-2-[[4-[2-amino-6-(hydroxymethyl)-4-pyridyl]piperazin-1-yl]methyl]-6-methyl-morpholin-4-yl]quinoline-8-carbonitrile]",,> 20,> 10,>256.4,>714.3,>109.9
Cc1cc(N2CC(NC[C@H]3CN(c4ccc(C#N)c5ncccc45)C[C@@H](C)O3)C2)cc(CO)n1 [Example 30],7.14,> 10,4.51,69.4,322.0,51.2
Cc1cc(N2CCC3(CN(C[C@H]4CN(c5ccc(C#N)c6ncccc56)C[C@@H](C)O4)C3)C2)cc(C)n1 [Example 9],6.15,,,,,
"Cc1cc(N2CC3(CN(C[C@H]4CN(c5ccc(C#N)c6ncccc56)C[C@@H](C)O4)C3)C2)cc(CO)n1 [Example 1, 5-[(2S,6R)-2-[[2-[2-(hydroxymethyl)-6-methyl-4-pyridyl]-2,6-diazaspiro[3.3]heptan-6-yl]methyl]-6-methyl-morpholin-4-yl]quinoline-8-carbonitrile]",6.35,> 20,> 10,>357.1,>123.5,>294.1
Cc1cc(NC2CCN(C[C@H]3CN(c4ccc(C#N)c5ncccc45)C[C@@H](C)O3)C2)cc(CO)n1 (stereo partly drawn) [Example 6],6.15,> 20,5.83,132.4,109.9,142.1
"Cc1cc(N2CCN(C[C@H]3CN(c4ccc(C#N)c5ncccc45)C[C@@H](C)O3)CC2)cc(N)n1 [Example 40, 5-[(2S,6R)-2-[[4-(2-amino-6-methyl-4-pyridyl)piperazin-1-yl]methyl]-6-methyl-morpholin-4-yl]quinoline-8-carbonitrile]",6.15,,,,,
Cc1cc(N2CC(N(C)C[C@H]3CN(c4ccc(C#N)c5ncccc45)C[C@@H](C)O3)C2)cc(CO)n1 [Example 37],6.15,,,,,
Cc1cc(N2CCN(C[C@H]3CN(c4ccc(C#N)c5ncccc45)C[C@@H](C)O3)[C@@H](C)C2)cc(CO)n1 [Example 4A],6.15,,,,,
Cc1cc(NC2CCN(C[C@H]3CN(c4ccc(C#N)c5ncccc45)C[C@@H](C)O3)CC2)cc(CO)n1 [Example 5],7.47,> 20,7.18,121.8,217.7,224.5
Cc1cc(N2CC[C@@H](NC[C@H]3CN(c4ccc(C#N)c5ncccc45)C[C@@H](C)O3)C2)cc(CO)n1 [Example 28],6.25,,,,,
"C[C@@H]1CN(c2ccc(C#N)c3ncccc23)C[C@H](CNC2CCN(c3ccnc(N)c3)CC2)O1 [Example 20, 5-[(2S,6R)-2-[[[1-(2-amino-4-pyridyl)-4-piperidyl]amino]methyl]-6-methyl-morpholin-4-yl]quinoline-8-carbonitrile]",6.15,,,,,
Cc1cc(NC2CN(C[C@H]3CN(c4ccc(C#N)c5ncccc45)C[C@@H](C)O3)C2)cc(C)n1 [Example 7],6.15,> 20,> 10,>384.6,>322.6,>256.4

# More lines, main results first:
Clearance of Human microsome [1] [mL/min/kg],Structure (SMILES),IC50 (hERG channel) [µM],IC20 (hERG channel) [µM],hERG IC20/TLR7 IC50 (hERG channel),hERG IC20/TLR8 IC50 (hERG channel),hERG IC20/TLR9 IC50 (hERG channel)
7.72,Cc1cc(N2CCN(C[C@H]3CN(c4ccc(C#N)c5ncccc45)C[C@@H](C)O3)CC2)cc(CO)n1 [Example 50],,,,,
6.87,"C[C@@H]1CN(c2ccc(C#N)c3ncccc23)C[C@H](CN2CC3(C2)CN(c2ccnc(C(C)(C)O)c2)C3)O1 [Example 48, 5-[(2S,6R)-2[[2-[2-(1-hydroxy-1-methyl-ethyl)-4-pyridyl]-2,6-diazaspiro[3.3]heptan-6-yl]methyl]-6-methyl-morpholin-4-yl]quinoline-8-carbonitrile]",,,,,
7.66,"CC(O)c1cc(N2CC3(CN(C[C@H]4CN(c5ccc(C#N)c6ncccc56)C[C@@H](C)O4)C3)C2)ccn1 (stereo partly drawn) [Example 46, 5-[(2S,6R)-2-[[2-[2-(1-hydroxyethyl)-4-pyridyl]-2,6-diazaspiro[3.3]heptan-6-yl]methyl]-6-methyl-morpholin-4-yl]quinoline-8-carbonitrile]",> 10,4.69,146.6,52.1,146.6
7.21,"Cc1cc(N2CC3(CN(C[C@H]4CN(c5ccc(C#N)c6ncccc56)C[C@@H](C)O4)C3)C2)cc(C(C)O)n1 (stereo partly drawn) [Example 44, 5-[(2S,6R)-2-[[2-[2-(1-hydroxyethyl)-6-methyl-4-pyridyl]-2,6-diazaspiro[3.3]heptan-6-yl]methyl]-6-methyl-morpholin-4-yl]quinoline-8-carbonitrile]",,,,,
6.39,"C[C@@H]1CN(c2ccc(C#N)c3ncccc23)C[C@H](CN2CC3(C2)CN(c2ccnc(C4CC4)c2)C3)O1 [Example 49, 5-[(2S,6R)-2[[2-(2-cyclopropyl-4-pyridyl)-2,6-diazaspiro[3.3]heptan-6-yl]methyl]-6-methyl-morpholin-4-yl]quinoline-8-carbonitrile]",,,,,
